Test results: patent US20180057505A1, “BICYCLIC HETEROARYL COMPOUNDS USEFUL AS INHIBITORS OF THE PAR-2 SIGNALING PATHWAY” (VERTEX PHARMACEUTICALS INCORPORATED, priority 2015, published 2018)

Key:
Type in all cases: cell-based
[1] = target: T1, PAR2 (HT-29 cells) (Homo sapiens, UniProt P55085); assay: Ca FLIPR TETRA assay, ANTAGONIST mode, activator 8 μM SLIGKV; conditions: HT-29 cells, activator 8 μM SLIGKV; maximal antagonist concentration per Method (A: 0.1, 1 or 2 μM; B: 50 μM)
T1 construct: host or cells: HT-29
T1 sequence (P55085 26-397): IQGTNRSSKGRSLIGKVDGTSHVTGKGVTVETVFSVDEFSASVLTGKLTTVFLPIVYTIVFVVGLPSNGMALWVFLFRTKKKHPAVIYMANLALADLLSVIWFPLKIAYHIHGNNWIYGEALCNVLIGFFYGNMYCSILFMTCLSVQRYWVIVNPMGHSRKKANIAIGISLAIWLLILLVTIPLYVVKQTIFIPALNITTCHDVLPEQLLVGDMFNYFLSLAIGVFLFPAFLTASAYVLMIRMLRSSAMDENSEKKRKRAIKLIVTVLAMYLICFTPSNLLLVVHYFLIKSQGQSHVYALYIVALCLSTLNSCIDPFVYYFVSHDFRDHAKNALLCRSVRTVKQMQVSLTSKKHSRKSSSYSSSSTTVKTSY
Summary of the method: (§1)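 HT-29 cells plated overnight at 37 °C in 1% FBS/McCoy's, loaded with calcium 5 dye (45 min 37 °C, 15 min r.t.), then preincubated with compounds 30 min at r.t. before a fixed activator challenge. Intracellular Ca2+ read by FLIPR Tetra; a first read checks compound-alone activation.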

[2] = target: T1, PAR2 (HT-29 cells); assay: Ca FLIPR TETRA assay, ANTAGONIST mode, activator 3.1 U/mL trypsin; conditions: HT-29 cells, activator 3.1 U/mL trypsin; maximal antagonist concentration per Method (A: 0.1, 1 or 2 μM; B: 50 μM)
Summary of the method: as §1

[3] = system: Thrombin-stimulated Ca2+ response in HT-29 cells; assay: Ca FLIPR TETRA assay, ANTAGONIST mode, activator 1 U/mL Thrombin; conditions: Homo sapiens; HT-29 cells, activator 1 U/mL Thrombin
Summary of the method: as §1

[4] = system: UTP-stimulated Ca2+ response in HT-29 cells; assay: Ca FLIPR TETRA assay, ANTAGONIST mode, activator 0.6 μM UTP; conditions: Homo sapiens; HT-29 cells, activator 0.6 μM UTP
Summary of the method: as §1

| SMILES | IC50 [1] | IC50 [2] | IC50 [3] | IC50 [4] |
| --- | --- | --- | --- | --- |
| Cc1cncnc1N1CCN(C(=O)c2cc3nc(-c4ccc(Cl)cc4)cc(C(C)(C)C)c3o2)C(C)(C)C1 [Example I-265] | 5.8 nM | 5.5 nM | > 2000 nM | > 2000 nM |
| Cc1nccnc1N1CCN(C(=O)c2cc3nc(-c4ccc(Cl)cc4)cc(C(C)(C)C)c3o2)C(C)(C)C1 [Example I-266] | 36 nM | 33 nM | > 2000 nM | > 2000 nM |
| CC(C)(C)c1cc(-c2ccc(Cl)c(F)c2)nc2cc(C(=O)N3CCN(c4cccnc4)CC3(C)C)oc12 [Example I-267, [7-tert-butyl-5-(4-chloro-3-fluoro-phenyl)furo[3,2-b]pyridin-2-yl]-[2,2-dimethyl-4-(3-pyridyl)piperazin-1-yl]methanone] | 33 nM | 25 nM | > 2000 nM | > 2000 nM |
| COC(=O)c1cccc(N2CCN(C(=O)c3cc4nc(-c5ccc(Cl)c(F)c5)cc(C(C)(C)C)c4o3)C(C)(C)C2)n1 [Example I-268] | 4.9 nM | 9.4 nM | > 2000 nM | > 2000 nM |
| CC(C)(C)c1cc(-c2ccc(Cl)cc2)nc2cc(C(=O)N3CCN(c4cccnc4)CC3(C)C)oc12 [Example I-269] | 57 nM | 41 nM | > 2000 nM | > 2000 nM |
| CC1(C)CCC(c2cc(C(C)(C)C)c3oc(C(=O)N4CCN(c5ccccn5)CC4(C)C)cc3n2)CC1 [Example I-270] | 21 nM | 51 nM | > 2000 nM | > 2000 nM |
| CC(C)(C)c1cc(-c2ccc(Cl)c(F)c2)nc2cc(C(=O)N3CCN(c4ccccn4)CC3(C)C)oc12 [Example I-271] | 7.4 nM | 7.8 nM | > 2000 nM | > 2000 nM |
| CC(C)(C)c1cc(-c2ccc(Cl)cc2)nc2cc(C(=O)N3CCN(c4ccccn4)CC3(C)C)oc12 [Example I-272] | 21 nM | 14 nM | > 2000 nM | > 2000 nM |
| CC(C)(C)c1cc(-c2ccc(Cl)cc2)nc2cc(C(=O)N3CCN(c4cn[nH]c4)CC3(C)C)oc12 [Example I-273] | 26 nM | 14 nM | > 2000 nM | > 2000 nM |
| CC(C)(C)c1cc(-c2ccc(Cl)cc2)nc2cc(C(=O)N3CCN(c4ccc(C(=O)O)nc4)CC3(C)C)oc12 [Example I-274] | 61 nM | 34 nM | > 2000 nM | > 2000 nM |
| Cc1cc(-c2cc(C(C)(C)C)c3oc(C(=O)N4CCN(c5cn[nH]c5)C(=O)C4(C)C)cc3n2)ccc1Cl [Example I-275, 4-[7-tert-butyl-5-(4-chloro-3-methyl-phenyl)furo[3,2-b]pyridine-2-carbonyl]-3,3-dimethyl-1-(1H-pyrazol-4-yl)piperazin-2-one] | 16 nM | 20 nM | > 2000 nM | > 2000 nM |
| Cc1ccnc(N2CCN(C(=O)c3cc4nc(-c5ccc(Cl)c(F)c5)cc(C(C)(C)C)c4o3)C(C)(C)C2=O)n1 [Example I-276] | 1.2 nM | 1.8 nM | > 2000 nM | > 2000 nM |
| CC(C)(C)c1cc(-c2ccc(Cl)c(F)c2)nc2cc(C(=O)N3CCN(c4cc(C(=O)O)n[nH]4)C(=O)C3(C)C)oc12 [Example I-280, 5-[4-[7-tert-butyl-5-(4-chloro-3-fluoro-phenyl)furo[3,2-b]pyridine-2-carbonyl]-3,3-dimethyl-2-oxo-piperazin-1-yl]-1H-pyrazole-3-carboxylic acid] | 36 nM | 52.5 nM | > 2000 nM | > 2000 nM |
| CC1(C)CCC(c2cc(C(C)(C)C)c3oc(C(=O)N4CCN(c5ccc(C(=O)O)cn5)C(=O)C4(C)C)cc3n2)CC1 [Example I-281, 6-[4-[7-tert-butyl-5-(4,4-dimethylcyclohexyl)furo[3,2-b]pyridine-2-carbonyl]-3,3-dimethyl-2-oxo-piperazin-1-yl]pyridine-3-carboxylic acid] | 3.6 nM | 7.4 nM | 1750 nM | > 2000 nM |
| CC(C)(C)c1cc(-c2ccc(Cl)cc2)nc2cc(C(=O)N3CCN(c4ccc(C(=O)O)cn4)C(=O)C3(C)C)oc12 [Example I-282, 6-[4-[7-tert-butyl-5-(4-chlorophenyl)furo[3,2-b]pyridine-2-carbonyl]-3,3-dimethyl-2-oxo-piperazin-1-yl]pyridine-3-carboxylic acid] | 7.5 nM | 8.3 nM | 1600 nM | 1800 nM |
| CC1(C)CCC(c2cc(C(C)(C)C)c3oc(C(=O)N4CCN(c5ccn[nH]5)C(=O)C4(C)C)cc3n2)CC1 [Example I-283, 4-[7-tert-butyl-5-(4,4-dimethylcyclohexyl)furo[3,2-b]pyridine-2-carbonyl]-3,3-dimethyl-1-(1H-pyrazol-5-yl)piperazin-2-one] | 18 nM | 61.5 nM | > 2000 nM | > 2000 nM |
